Assay results as given in ChEMBL document CHEMBL1909046, “DrugMatrix in vitro pharmacology data”.

Key:
[1] = biological target: T1, Neuropeptide Y receptor type 1 (Homo sapiens, UniProt P25929); assay type: cell membranes, Membrane; conditions: sk-n-mc; also: in other assays of this panel Not Active means under 50% inhibition at 10 µM
T1 sequence (P25929 whole entry): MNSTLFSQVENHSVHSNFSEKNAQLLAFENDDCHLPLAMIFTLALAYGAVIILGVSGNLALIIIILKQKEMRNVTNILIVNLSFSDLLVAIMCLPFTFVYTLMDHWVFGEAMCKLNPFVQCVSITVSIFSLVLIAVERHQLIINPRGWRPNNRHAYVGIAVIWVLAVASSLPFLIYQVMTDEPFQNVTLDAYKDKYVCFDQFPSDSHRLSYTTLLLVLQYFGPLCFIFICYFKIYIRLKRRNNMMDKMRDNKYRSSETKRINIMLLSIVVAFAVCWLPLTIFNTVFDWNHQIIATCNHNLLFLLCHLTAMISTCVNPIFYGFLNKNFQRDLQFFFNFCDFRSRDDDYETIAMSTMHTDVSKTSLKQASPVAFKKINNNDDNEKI

Adenosine receptor A2a = Adenosine receptor A2a (Homo sapiens, UniProt P29274); assay: DRUGMATRIX: Adenosine A2A radioligand binding (ligand: […]); assay type: cell membranes, HEK293, Membrane; conditions: Not Active = under 50% inhibition at 10 µM
Adenosine receptor A2a, sequence (P29274 whole entry): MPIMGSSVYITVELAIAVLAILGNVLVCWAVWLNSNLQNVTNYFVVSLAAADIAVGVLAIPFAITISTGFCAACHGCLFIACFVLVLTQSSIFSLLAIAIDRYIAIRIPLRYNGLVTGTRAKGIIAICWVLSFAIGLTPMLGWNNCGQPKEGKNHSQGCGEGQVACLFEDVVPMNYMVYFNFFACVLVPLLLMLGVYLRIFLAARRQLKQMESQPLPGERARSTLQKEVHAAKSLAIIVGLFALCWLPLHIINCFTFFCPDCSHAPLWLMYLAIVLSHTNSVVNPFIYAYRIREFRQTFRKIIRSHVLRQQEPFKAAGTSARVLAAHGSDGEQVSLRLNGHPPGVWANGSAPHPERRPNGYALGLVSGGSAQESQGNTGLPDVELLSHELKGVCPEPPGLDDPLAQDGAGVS

Acetylcholinesterase = Acetylcholinesterase (Homo sapiens, UniProt P22303); assay: DRUGMATRIX: Acetylcholinesterase enzyme inhibition (substrate: acetylthiocholine); assay type: cell-based, HEK293; conditions: hek293; Not Active = under 50% inhibition at 10 µM
Acetylcholinesterase, sequence (P22303 whole entry): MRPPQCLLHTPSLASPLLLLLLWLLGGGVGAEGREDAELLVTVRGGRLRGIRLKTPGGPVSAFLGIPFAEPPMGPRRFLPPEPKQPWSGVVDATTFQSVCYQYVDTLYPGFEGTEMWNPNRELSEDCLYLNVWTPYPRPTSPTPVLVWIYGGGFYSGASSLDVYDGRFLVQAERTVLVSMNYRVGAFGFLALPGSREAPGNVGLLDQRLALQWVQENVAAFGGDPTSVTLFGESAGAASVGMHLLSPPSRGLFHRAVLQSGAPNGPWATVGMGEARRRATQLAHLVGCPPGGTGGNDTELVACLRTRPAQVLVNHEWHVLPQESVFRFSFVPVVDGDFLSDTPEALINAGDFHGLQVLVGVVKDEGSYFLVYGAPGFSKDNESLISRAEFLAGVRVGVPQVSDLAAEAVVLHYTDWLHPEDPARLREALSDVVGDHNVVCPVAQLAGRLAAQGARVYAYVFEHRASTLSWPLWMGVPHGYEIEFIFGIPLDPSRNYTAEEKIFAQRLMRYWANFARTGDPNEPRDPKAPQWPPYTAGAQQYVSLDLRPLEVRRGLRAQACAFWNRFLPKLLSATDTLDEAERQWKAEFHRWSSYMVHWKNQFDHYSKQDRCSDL

[2] = biological target: Voltage-gated inwardly rectifying potassium channel KCNH2 (Homo sapiens, UniProt Q12809); conditions: hek293; also: in other assays of this panel Not Active means under 50% inhibition at 10 µM
Voltage-gated inwardly rectifying potassium channel KCNH2, sequence (Q12809 whole entry): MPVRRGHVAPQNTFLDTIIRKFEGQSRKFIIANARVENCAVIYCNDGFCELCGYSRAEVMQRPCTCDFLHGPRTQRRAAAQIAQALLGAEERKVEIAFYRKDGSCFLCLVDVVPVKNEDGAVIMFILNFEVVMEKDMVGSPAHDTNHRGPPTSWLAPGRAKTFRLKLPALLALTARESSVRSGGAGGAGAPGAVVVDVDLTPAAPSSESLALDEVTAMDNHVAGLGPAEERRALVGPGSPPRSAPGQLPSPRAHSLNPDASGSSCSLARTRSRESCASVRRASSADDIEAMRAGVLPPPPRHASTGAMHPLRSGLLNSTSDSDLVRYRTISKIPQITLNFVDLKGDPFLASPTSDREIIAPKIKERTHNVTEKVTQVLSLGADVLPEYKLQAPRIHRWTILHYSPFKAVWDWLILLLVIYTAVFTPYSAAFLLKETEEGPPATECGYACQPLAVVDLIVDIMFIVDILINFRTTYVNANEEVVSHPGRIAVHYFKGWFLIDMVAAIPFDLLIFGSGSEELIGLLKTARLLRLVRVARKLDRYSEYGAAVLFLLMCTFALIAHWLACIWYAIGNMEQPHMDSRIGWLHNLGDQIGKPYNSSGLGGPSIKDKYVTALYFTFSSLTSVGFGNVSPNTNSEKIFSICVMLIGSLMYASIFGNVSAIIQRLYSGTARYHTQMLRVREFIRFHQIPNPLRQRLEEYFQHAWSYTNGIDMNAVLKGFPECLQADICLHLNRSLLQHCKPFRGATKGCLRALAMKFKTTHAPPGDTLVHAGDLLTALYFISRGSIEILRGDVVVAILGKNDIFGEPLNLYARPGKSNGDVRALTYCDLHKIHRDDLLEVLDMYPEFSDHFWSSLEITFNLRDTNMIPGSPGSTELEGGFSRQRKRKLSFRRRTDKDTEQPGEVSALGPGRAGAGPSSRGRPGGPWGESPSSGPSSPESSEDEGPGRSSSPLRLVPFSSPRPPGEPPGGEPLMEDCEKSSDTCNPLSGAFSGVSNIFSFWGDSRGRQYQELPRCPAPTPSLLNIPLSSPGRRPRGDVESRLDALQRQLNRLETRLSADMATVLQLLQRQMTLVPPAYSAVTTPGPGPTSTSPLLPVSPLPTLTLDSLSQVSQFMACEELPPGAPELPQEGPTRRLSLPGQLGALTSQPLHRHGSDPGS

[3] = biological target: T2, Muscarinic acetylcholine receptor M2 (Homo sapiens, UniProt P08172); assay type: cell membranes, CHO-K1, Membrane; conditions: cho-k1; also: in other assays of this panel Not Active means under 50% inhibition at 10 µM
T2 sequence (P08172 whole entry): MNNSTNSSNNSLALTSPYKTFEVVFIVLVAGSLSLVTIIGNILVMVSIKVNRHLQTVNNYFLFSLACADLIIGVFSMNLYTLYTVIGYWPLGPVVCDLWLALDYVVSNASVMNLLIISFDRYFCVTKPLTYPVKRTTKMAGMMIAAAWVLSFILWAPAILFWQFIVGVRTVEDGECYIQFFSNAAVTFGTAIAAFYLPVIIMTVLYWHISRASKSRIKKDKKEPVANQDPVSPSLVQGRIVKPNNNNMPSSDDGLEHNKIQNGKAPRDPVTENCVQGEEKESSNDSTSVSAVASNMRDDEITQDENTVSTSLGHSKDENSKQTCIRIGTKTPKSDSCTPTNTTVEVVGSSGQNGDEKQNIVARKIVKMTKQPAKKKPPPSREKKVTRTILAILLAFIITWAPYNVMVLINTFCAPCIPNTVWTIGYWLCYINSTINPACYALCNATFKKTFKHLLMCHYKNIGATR

Neutrophil elastase = biological target: T3, Neutrophil elastase (Homo sapiens, UniProt P08246); assay type: tissue-based;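 also: inhibition of neutrophil elastase enzyme activity, measured with a p-nitroanilide-linked peptide substrate; in other assays of this panel Not Active means under 50% inhibition at 10 µM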
T3 sequence (P08246 whole entry): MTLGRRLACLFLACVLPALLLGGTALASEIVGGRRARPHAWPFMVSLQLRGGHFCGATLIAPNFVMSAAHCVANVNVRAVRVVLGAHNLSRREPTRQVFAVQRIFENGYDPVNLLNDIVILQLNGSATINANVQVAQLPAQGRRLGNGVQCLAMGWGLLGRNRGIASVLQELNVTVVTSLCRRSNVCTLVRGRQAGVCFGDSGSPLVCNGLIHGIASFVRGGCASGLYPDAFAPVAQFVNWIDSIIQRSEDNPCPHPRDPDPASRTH

[4] = biological target: Delta-type opioid receptor (Homo sapiens, UniProt P41143); assay type: cell membranes, HEK293, Membrane; also: in other assays of this panel Not Active means under 50% inhibition at 10 µM
Delta-type opioid receptor, sequence (P41143 whole entry): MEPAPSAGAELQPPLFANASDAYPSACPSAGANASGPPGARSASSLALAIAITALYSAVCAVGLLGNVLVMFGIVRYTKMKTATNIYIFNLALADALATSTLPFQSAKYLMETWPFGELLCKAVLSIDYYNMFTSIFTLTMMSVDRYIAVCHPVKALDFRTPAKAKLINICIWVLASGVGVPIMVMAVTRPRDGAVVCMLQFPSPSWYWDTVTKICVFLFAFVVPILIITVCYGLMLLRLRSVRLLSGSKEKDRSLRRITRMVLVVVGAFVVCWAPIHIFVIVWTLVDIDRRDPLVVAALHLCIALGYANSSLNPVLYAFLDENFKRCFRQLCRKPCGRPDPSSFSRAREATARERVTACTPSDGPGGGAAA

Row | Structure (SMILES) | IC50 [1] | IC50 (Adenosine receptor A2a; hek293) | IC50 (Acetylcholinesterase) | IC50 [2] | Ki [2] | IC50 [3] | IC50 (Neutrophil elastase) | IC50 ([4]; hek293) | IC50 ([4]; read-out: IC50) [µM] | Ki ([4]; read-out: Ki) [µM] | IC50 (Adenosine receptor A2a; read-out: IC50) [µM] | Ki (Adenosine receptor A2a; read-out: Ki) [µM]
1 | C=C(C)[C@H]1Cc2c(ccc3c2O[C@@H]2COc4cc(OC)c(OC)cc4[C@@H]2C3=O)O1 [ROTENONE] | Not Active | Not Active | Not Active | Not Active | Not Active | Not Active | Not Active | Not Active | – | – | – | –
2 | Nc1ccc(S(=O)(=O)Nc2nccs2)cc1 [SULFATHIAZOLE] | Not Active | Not Active | Not Active | Not Active | Not Active | Not Active | Not Active | Not Active | – | – | – | –
3 | OCCN1CCN(CCCN2c3ccccc3Sc3ccc(C(F)(F)F)cc32)CC1 [FLUPHENAZINE] | Not Active | Not Active | Not Active | – | – | – | Not Active | – | 24 | 8.47 | – | –
4 | COc1ccc(CN2CCNCC2)c(OC)c1OC [TRIMETAZIDINE] | Not Active | Not Active | Not Active | Not Active | Not Active | Not Active | Not Active | Not Active | – | – | – | –
5 | CC[C@@H](CO)NC(=O)[C@@H]1C=C2c3cccc4c3c(cn4C)C[C@H]2N(C)C1 [METHYSERGIDE] | Not Active | Not Active | Not Active | Not Active | Not Active | Not Active | Not Active | Not Active | – | – | – | –
6 | COc1cc(C(=O)NS(=O)(=O)c2ccccc2C)ccc1Cc1cn(C)c2ccc(NC(=O)OC3CCCC3)cc12 [ZAFIRLUKAST] | Not Active | Not Active | Not Active | Not Active | Not Active | Not Active | Not Active | Not Active | – | – | – | –
7 | CCCc1nn(C)c2c(=O)[nH]c(-c3cc(S(=O)(=O)N4CCN(C)CC4)ccc3OCC)nc12 | Not Active | – | Not Active | – | – | Not Active | Not Active | Not Active | – | – | 0.253 | 0.142
8 | CN[C@@H]1[C@H](O)[C@H](NC)[C@H]2O[C@@]3(O)C(=O)C[C@@H](C)O[C@H]3O[C@@H]2[C@H]1O [SPECTINOMYCIN] | Not Active | Not Active | Not Active | Not Active | Not Active | Not Active | Not Active | Not Active | – | – | – | –
9 | CC(=O)Nc1nnc(S(N)(=O)=O)s1 [ACETAZOLAMIDE] | Not Active | Not Active | Not Active | Not Active | Not Active | Not Active | Not Active | Not Active | – | – | – | –
10 | CCN(CC)CC#CCOC(=O)C(O)(c1ccccc1)C1CCCCC1 (stereo not given) [OXYBUTYNIN] | Not Active | Not Active | Not Active | Not Active | Not Active | – | Not Active | Not Active | – | – | – | –
11 | CC(C)(C)NC[C@H](O)COc1nsnc1N1CCOCC1 [TIMOLOL] | Not Active | Not Active | Not Active | Not Active | Not Active | Not Active | Not Active | Not Active | – | – | – | –
12 | O=P(O)(O)C(O)(Cc1cccnc1)P(=O)(O)O [RISEDRONIC ACID] | Not Active | Not Active | Not Active | Not Active | Not Active | Not Active | Not Active | Not Active | – | – | – | –
13 | COc1ccc(/C=C/C(=O)Nc2ccccc2C(=O)O)cc1OC | Not Active | Not Active | Not Active | Not Active | Not Active | Not Active | Not Active | Not Active | – | – | – | –
